According to the SangsterLogP compilation:

assay: method code SF, from DOI: 10.1021/jm101405t, PMID: 21319751; conditions: pH 7.4

For `OCCc1ccc(OCc2cccc(-c3ccccn3)c2)cc1`, which logD is on record?
Its logD is 1.94.

With `OCCc1ccc(OCc2ccc(-c3ccccc3)cc2)cc1` as the compound, how does the logD read?
The logD was 3.41.

For `OCCc1ccc(OCc2ccccc2Oc2ccccc2)cc1`, which logD is on record?
Its logD is 3.32.

With `OCCc1ccc(OCc2cccc(-c3ccccc3)c2)cc1` as the compound, how does the logD read?
The logD was 3.37.

For `OCCc1ccc(OCc2cccc(-c3nccs3)c2)cc1`, which logD is on record?
The logD was 2.11.

For `OCCc1ccc(OCc2ccccc2)cc1`, which logD is on record?
Its logD is 1.96.

With `OCCc1ccc(OCc2cccc(-c3cccs3)c2)cc1` as the compound, how does the logD read?
The logD was 3.22.

For `OCCc1ccc(-c2cccc(OCCc3ccccc3)c2)cc1`, which logD is on record?
The logD was 3.63.

Which logD does the source give for `OCCc1ccc(OCc2ccccc2-c2ccccc2)cc1` here?
Its logD is 3.25.
